From ChEMBL document CHEMBL2424541, “Anti-inflammatory effects of extracellular cyclosporins are exclusively mediated by CD147” (J Med Chem, 2013) come the findings set out here.

Calls of active or inactive are those of the source. No cut-off for these calls is given here.

Data set [1] can be described thus: Inhibition of calcineurin phosphatase activity (unknown origin) assessed as R2 phosphopeptide dephosphorylation after 30 mins by malachite green staining assay in presence of calmodulin and CypA.
A short description of data set [2]: Cellular uptake in human Jurkat T cells assessed as displacemnet of [O-(2-acetamido)-D-serine]8-cyclosporine N-{(5-aminopentyl)-[2,3,6,7-tetrahydro-11-oxo-1H,5H,11Hbenzopyrano(6,7,8-ij)quinolizine-10-carboxyl amide] from intracellular compartments after 90 mins by flow cytometric analysis. It counts as ADME, cell-based. Particulars: 1.5 h. A general note: In flow cytometry, cells or beads pass a laser one at a time.

The target of data set [3] is T1, Peptidyl-prolyl cis-trans isomerase A (Homo sapiens, UniProt P62937). The data set can be described thus: Inhibition of CypA PPIase activity (unknown origin) using Glt-(Ala)n-Pro-Phe-4-nitroanilides as substrate.
Target sequence in this assay (P62937 whole entry): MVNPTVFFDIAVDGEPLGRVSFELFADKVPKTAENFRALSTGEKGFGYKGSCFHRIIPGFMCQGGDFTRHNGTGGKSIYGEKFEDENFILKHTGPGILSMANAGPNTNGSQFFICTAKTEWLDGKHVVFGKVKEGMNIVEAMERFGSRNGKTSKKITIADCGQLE
Data set [4] relates to Mus musculus. The data set can be described thus: In vivo inhibition of extracellular cyclophilin-mediated neutrophil recruitment in peritoneal fluid in thioglycollate challenged CD147-deficient C57BL6 mouse peritonitis model at 20 mg/kg, ip administered 3 hrs before thioglycollate challenge measured after 18 hrs. The class given is functional, organism-based. Details: dose 20 mg/kg.

For data set [5], the system named is Mus musculus. The data set can be described thus: In vivo inhibition of extracellular cyclophilin-mediated CD11b+ myeloid cells infiltration into TNCB challenged ear in C57BL6 mouse allergic contact hypersensitivity model at 4 mg/kg, ip bid administered on day 4 to 6 prior to TNCB challenge by immunohistochemical analysis. It counts as functional, organism-based. Details: dose 4 mg/kg.

Data set [6] in a line: Cellular uptake in human Jurkat T cells assessed as displacemnet of [O-(2-acetamido)-D-serine]8-cyclosporine N-{(5-aminopentyl)-[2,3,6,7-tetrahydro-11-oxo-1H,5H,11Hbenzopyrano(6,7,8-ij)quinolizine-10-carboxyl amide] from intracellular compartments at 50 fold excess after 90 mins by flow cytometric analysis. It counts as ADME, cell-based. To be noted: 1.5 h.
The species named for the next data set is Homo sapiens. The data set can be described thus: Inhibition of calcineurin phosphatase activity (unknown origin) assessed as R2 phosphopeptide dephosphorylation up to 10 uM after 30 mins by malachite green staining assay in presence of calmodulin and CypA.
Data set [7] deals with Mus musculus. The data set can be described thus: In vivo inhibition of extracellular cyclophilin-mediated MMP-9 secretion in peritoneal fluid in thioglycollate challenged C57BL6 mouse peritonitis model at 20 mg/kg, ip administered for 3 hrs before thioglycollate challenge by gelatin zymographic analysis. It counts as functional, organism-based. Also on record: dose 20 mg/kg.

The target in data set [8] is T1, Peptidyl-prolyl cis-trans isomerase A. To be noted: 1 uM.
Target sequence in this assay (P62937 whole entry, looked up): as the sequence (P62937 whole entry) above
Description: Inhibition of recombinant human CypA-mediated CD147-deficient leukocyte migration from mouse bone marrow at 1 uM after 2 hrs
For data set [9] the target is unchanged. To be noted: myeloid, 1 uM.
Target sequence in this assay (P62937 whole entry, looked up): as the sequence (P62937 whole entry) above
Description: Inhibition of recombinant human CypA-mediated CD11b+ myeloid cell migration from mouse bone marrow at 1 uM after 2 hrs
The test system of data set [10] is Mus musculus. The data set can be described thus: In vivo inhibition of extracellular cyclophilin-mediated ear swelling in CD147-deficient TNCB challenged C57BL6 mouse at 4 mg/kg, ip bid administered on day 4 to 6. The class given is functional, organism-based. Also on record: dose 4 mg/kg.
Data set [11] deals with Mus musculus. The data set can be described thus: In vivo inhibition of extracellular cyclophilin-mediated CD3+ T cells infiltration into TNCB challenged ear in CD147-deficient C57BL6 mouse allergic contact hypersensitivity model at 4 mg/kg, ip bid administered on day 4 to 6 prior to TNCB challenge by immunohistochemical analysis. The class given is functional, organism-based. Also on record: dose 4 mg/kg. To be noted: T-cell.

Data set [12] concerns Leukocyte. The data set can be described thus: Effect on FCS-induced wild type mouse leukocytes migration from bone marrow. The class given is functional.
Data set [13] concerns Mus musculus. The data set can be described thus: In vivo inhibition of extracellular cyclophilin-mediated monocytes recruitment in peritoneal fluid of thioglycollate challenged C57BL6 mouse peritonitis model at 20 mg/kg, ip administered 3 hrs before thioglycollate challenge measured after 18 hrs. It counts as functional, organism-based. Also on record: dose 20 mg/kg.
Data set [14] has as its target T1, Peptidyl-prolyl cis-trans isomerase A. Particulars: HeLa, 2 uM.
Target sequence in this assay (P62937 whole entry, looked up): as the sequence (P62937 whole entry) above
Description: Inhibition of CypA-mediated ERK phosphorylation in serum-starved human HeLa cells at 2 uM after 5 mins by Western blotting analysis
The test system of data set [15] is Mus musculus. The data set can be described thus: In vivo inhibition of extracellular cyclophilin-mediated CD3+ T cells infiltration into TNCB challenged ear in C57BL6 mouse allergic contact hypersensitivity model at 4 mg/kg, ip bid administered on day 4 to 6 prior to TNCB challenge by immunohistochemical analysis. The class given is functional, organism-based. Details: dose 4 mg/kg. Particulars: T-cell.

In data set [16] the target is T1, Peptidyl-prolyl cis-trans isomerase A. Particulars: 1 uM. The source holds these as a separate data set.
Target sequence in this assay (P62937 whole entry, looked up): as the sequence (P62937 whole entry) above
Description: Inhibition of recombinant human CypA-mediated leukocyte migration from mouse bone marrow at 1 uM after 2 hrs
The target in data set [17] is Peptidyl-prolyl cis-trans isomerase C (Homo sapiens, UniProt P45877). The data set can be described thus: Inhibition of CypC PPIase activity (unknown origin).
For data set [18], the system named is Mus musculus. The data set can be described thus: In vivo inhibition of extracellular cyclophilin-mediated IL-6 secretion in peritoneal fluid in thioglycollate challenged C57BL6 mouse peritonitis model at 20 mg/kg, ip administered for 3 hrs before thioglycollate challenge by ELISA. It counts as functional, organism-based. Also on record: dose 20 mg/kg. For orientation: ELISA stands for enzyme-linked immunosorbent assay.

In data set [19] the test system is Mus musculus. The data set can be described thus: In vivo inhibition of extracellular cyclophilin-mediated ear swelling in TNCB challenged C57BL6 mouse allergic contact hypersensitivity model at 4 mg/kg, ip bid administered on day 4 to 6 measured after 24 hrs. Details: dose 4 mg/kg. The class given is functional, organism-based.
The subject of data set [20] is Mus musculus. The data set can be described thus: In vivo inhibition of extracellular cyclophilin-mediated monocytes recruitment in peritoneal fluid in thioglycollate challenged CD147-deficient C57BL6 mouse peritonitis model at 20 mg/kg, ip administered 3 hrs before thioglycollate challenge measured after 18 hrs. The class given is functional, organism-based. Also on record: dose 20 mg/kg.

Data set [21] relates to Leukocyte. The data set can be described thus: Effect on fmlp-induced wild type mouse leukocytes migration from bone marrow. It counts as functional.
Data set [22] concerns Leukocyte. The data set can be described thus: Effect on fmlp-induced CD147-deficient mouse leukocytes migration from bone marrow. The class given is functional.
Data set [23] concerns Mus musculus. The data set can be described thus: In vivo inhibition of extracellular cyclophilin-mediated neutrophils recruitment in peritoneal fluid of thioglycollate challenged C57BL6 mouse peritonitis model at 20 mg/kg, ip administered 3 hrs before thioglycollate challenge measured after 18 hrs. The class given is functional, organism-based. Details: dose 20 mg/kg.
Data set [24] relates to Mus musculus. The data set can be described thus: In vivo inhibition of extracellular cyclophilin-mediated CD11b+ myeloid cells infiltration into TNCB challenged ear in CD147-deficient C57BL6 mouse allergic contact hypersensitivity model at 4 mg/kg, ip bid administered on day 4 to 6 prior to TNCB challenge by immunohistochemical analysis. It counts as functional, organism-based. Details: dose 4 mg/kg.

Data set [25] deals with T1, Peptidyl-prolyl cis-trans isomerase A. To be noted: Spleen, T-cell, 1 uM.
Target sequence in this assay (P62937 whole entry, looked up): as the sequence (P62937 whole entry) above
Description: Inhibition of recombinant human CypA-mediated PMA/ionomycin-induced CD3+ T cell migration from mouse spleen at 1 uM after 2 hrs
Data set [26] relates to Leukocyte. The data set can be described thus: Effect on FCS-induced CD147-deficient mouse leukocytes migration from bone marrow. It counts as functional.

Sequence of Peptidyl-prolyl cis-trans isomerase C (P45877 whole entry): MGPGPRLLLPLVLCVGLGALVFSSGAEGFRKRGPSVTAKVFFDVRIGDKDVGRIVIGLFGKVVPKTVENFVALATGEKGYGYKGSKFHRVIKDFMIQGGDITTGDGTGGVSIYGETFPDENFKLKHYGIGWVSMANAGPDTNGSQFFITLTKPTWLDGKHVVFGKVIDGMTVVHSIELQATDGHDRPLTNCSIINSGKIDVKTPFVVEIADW

Turning to `CC[C@@H]1NC(=O)[C@H]([C@H](O)[C@H](C)Cc2nc3ccccc3[nH]2)N(C)C(=O)[C@H](C(C)C)N(C)C(=O)[C@H](CC(C)C)N(C)C(=O)[C@H](CC(C)C)N(C)C(=O)[C@@H](C)NC(=O)[C@H](C)NC(=O)[C@H](CC(C)C)N(C)C(=O)[C@H](C(C)C)NC(=O)[C@H](CC(C)C)N(C)C(=O)CN(C)C1=O`, the IC50 in [1] came to 1.2 µM. Also, the Drug uptake result in data set [2] is recorded as “Active”.
For the molecule `CC[C@@H]1NC(=O)[C@H]([C@H](O)[C@H](C)Cc2nc3ccc(C(C)C)cc3[nH]2)N(C)C(=O)[C@H](C(C)C)N(C)C(=O)[C@H](CC(C)C)N(C)C(=O)[C@H](CC(C)C)N(C)C(=O)[C@@H](C)NC(=O)[C@H](C)NC(=O)[C@H](CC(C)C)N(C)C(=O)[C@H](C(C)C)NC(=O)[C@H](CC(C)C)N(C)C(=O)CN(C)C1=O`, the IC50 in data set [1] was above 10 µM. Also, the Drug uptake entry in data set [2] is given as “Active”. In [3], this molecule displayed a Ki of 43.9 nM.
Regarding `CC[C@@H]1NC(=O)[C@H]([C@H](O)[C@H](C)Cc2nc3ccccc3s2)N(C)C(=O)[C@H](C(C)C)N(C)C(=O)[C@H](CC(C)C)N(C)C(=O)[C@H](CC(C)C)N(C)C(=O)[C@@H](C)NC(=O)[C@H](C)NC(=O)[C@H](CC(C)C)N(C)C(=O)[C@H](C(C)C)NC(=O)[C@H](CC(C)C)N(C)C(=O)CN(C)C1=O`, the IC50 in [1] is 4.5 µM. Further, the Drug uptake result in data set [2] was “Active”. In addition, the Ki in data set [3] amounted to 36.6 nM.
`CC[C@@H]1NC(=O)[C@H]([C@H](O)[C@H](C)Cc2nc3ccc(C(=O)O)cc3[nH]2)N(C)C(=O)[C@H](C(C)C)N(C)C(=O)[C@H](CC(C)C)N(C)C(=O)[C@H](CC(C)C)N(C)C(=O)[C@@H](C)NC(=O)[C@H](C)NC(=O)[C@H](CC(C)C)N(C)C(=O)[C@H](C(C)C)NC(=O)[C@H](CC(C)C)N(C)C(=O)CN(C)C1=O`: the inhibition result (in the data set on Mus musculus [4]; in the data set listed under Homo sapiens; in data set [8]; in the data set on Mus musculus [10]; with Mus musculus [11]; with Mus musculus [20]) was “inactive” throughout. The inhibition result in the data set on Mus musculus [24] is “inactive”. For the same molecule, the inhibition result (in the data set on Mus musculus [5]; in the data set on Mus musculus [7]; in data set [9]; in the data set with Mus musculus [13]; in data set [14]; with Mus musculus [15]) was “Active” in each case. Also, the inhibition entry (in data set [16]; in the data set on Mus musculus [18]; with Mus musculus [19]; with Mus musculus [23]; in data set [25]) was “Active” in each case. The Drug uptake result in [6] was “Not Active”. The result in the data set on Leukocyte [12], with Leukocyte [21], with Leukocyte [22] and in the data set with Leukocyte [26] was inactive. Besides, the Ki in data set [17] came to 118 nM; in [3], 10.7 nM.
For `CC[C@@H]1NC(=O)[C@H]([C@H](O)[C@H](C)Cc2nc3ccc(C(=O)OC)cc3[nH]2)N(C)C(=O)[C@H](C(C)C)N(C)C(=O)[C@H](CC(C)C)N(C)C(=O)[C@H](CC(C)C)N(C)C(=O)[C@@H](C)NC(=O)[C@H](C)NC(=O)[C@H](CC(C)C)N(C)C(=O)[C@H](C(C)C)NC(=O)[C@H](CC(C)C)N(C)C(=O)CN(C)C1=O`, the IC50 in data set [1] stood at 6.9 µM. Also, the Drug uptake entry in data set [2] is reported as “Active”. The molecule further returned a Ki in data set [3] of 11.8 nM.
In the case of `CC[C@@H]1NC(=O)[C@H]([C@H](O)[C@H](C)Cc2nc3ccccc3c(=O)[nH]2)N(C)C(=O)[C@H](C(C)C)N(C)C(=O)[C@H](CC(C)C)N(C)C(=O)[C@H](CC(C)C)N(C)C(=O)[C@@H](C)NC(=O)[C@H](C)NC(=O)[C@H](CC(C)C)N(C)C(=O)[C@H](C(C)C)NC(=O)[C@H](CC(C)C)N(C)C(=O)CN(C)C1=O`, in data set [1], the IC50 came out at 4.6 µM. In addition, in [2], the Drug uptake entry is “Active”.
`CC[C@@H]1NC(=O)[C@H]([C@H](O)[C@H](C)CC2=Nc3ccccc3CN2)N(C)C(=O)[C@H](C(C)C)N(C)C(=O)[C@H](CC(C)C)N(C)C(=O)[C@H](CC(C)C)N(C)C(=O)[C@@H](C)NC(=O)[C@H](C)NC(=O)[C@H](CC(C)C)N(C)C(=O)[C@H](C(C)C)NC(=O)[C@H](CC(C)C)N(C)C(=O)CN(C)C1=O`: the inhibition entry in the data set filed under Homo sapiens is “inactive”. Besides, the Drug uptake entry in data set [2] is reported as “Active”.
As to `CC[C@@H]1NC(=O)[C@H]([C@H](O)[C@H](C)Cc2nc3ccc(C)cc3[nH]2)N(C)C(=O)[C@H](C(C)C)N(C)C(=O)[C@H](CC(C)C)N(C)C(=O)[C@H](CC(C)C)N(C)C(=O)[C@@H](C)NC(=O)[C@H](C)NC(=O)[C@H](CC(C)C)N(C)C(=O)[C@H](C(C)C)NC(=O)[C@H](CC(C)C)N(C)C(=O)CN(C)C1=O`, in data set [1], the IC50 turned out to be 3.4 µM. The Drug uptake result in data set [2] was “Active”. This molecule also registered a Ki in [3] of 12.4 nM.

The term IC50 denotes the concentration needed to halve the response being measured. The term Ki denotes a measure of affinity in units of concentration, obtained from inhibition or displacement. Read a low Ki as higher affinity.
